The supplement of paper PMC10307832

Compound: CCCS(=O)(=O)Nc1ccc(F)c(C(=O)c2c[nH]c3ncc(-c4ccc(Cl)cc4)cc23)c1F [Vemurafenib] + COc1cc2c(Oc3ccc(NC(=O)C4(C(=O)Nc5ccc(F)cc5)CC4)cc3F)ccnc2cc1OCCCN1CCOCC1 [Foretinib] (partner 0.25 µM)
Assay: relative viability (nuclei count vs DMSO), 5 days (fraction); higher = more cells survive
Conditions: first compound 1 µM
Procedure, shortened: (§1)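 After 5 days of treatment, lung cancer cells in 1536-well plates were fixed and stained in a single step (final 0.05% Triton X-100, 1% formaldehyde, 1 ug/ml Hoechst) and their nuclei counted on 4× images. Treatment had been applied by pin tool the day after seeding as one drug alone or as a fixed anchor-drug dose with five library-drug doses (not always all listed) in √10 steps. Relative viability is the nuclei count of treated wells divided by that of vehicle wells, and values are medians of duplicate plates.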

Cell Line	relative viability
NCI-H2085	0.902
NCI-H727	0.969
NCI-H647	1.02
HARA	0.559
NCI-H3122	1.07
CAL-12T	1.09
COR-L 105	0.978
LCLC-97TM1	0.971
NCI-H520	0.626
NCI-H2228	0.869
NCI-H23	0.719
HCC-827	1.04
NCI-H2347	0.811
LXF-289	1.07
NCI-H1666	0.925
RERF-LC-KJ	0.876
NCI-H650	0.879
NCI-H322M	1.02
NCI-H596	0.922
201T	1.1
NCI-H441	0.912
HCC-78	0.552

Compound: CCCS(=O)(=O)Nc1ccc(F)c(C(=O)c2c[nH]c3ncc(-c4ccc(Cl)cc4)cc23)c1F [Vemurafenib] + N=C(N)NC(=N)NCCc1ccccc1 [Phenformin] (partner 250 µM)
Assay: as above
Conditions: first compound 0.03162 µM
Procedure, shortened: as §1

Cell Line	relative viability
EKVX	0.223
NCI-H2087	0.438
NCI-H1734	0.403
LCLC-103H	0.312
LU99A	0.887
NCI-H460	0.495
SK-LU-1	0.428
COR-L23	0.38
HCC-15	0.441
NCI-H1563	0.632
EMC-BAC-2	0.509
LC-2-ad	0.549
NCI-H2085	0.65
NCI-H727	0.508
NCI-H647	0.439
HARA	0.434
NCI-H3122	0.357

Cell Line	relative viability
CAL-12T	0.538
COR-L 105	0.399
LCLC-97TM1	0.4
NCI-H520	0.564
NCI-H2228	0.376
NCI-H23	0.702
HCC-827	0.377
NCI-H2347	0.33
LXF-289	0.456
NCI-H1666	0.549
RERF-LC-KJ	0.428
NCI-H650	0.437
NCI-H322M	0.714
NCI-H596	0.871
201T	0.421
NCI-H441	0.952
HCC-78	0.656

Same assay, conditions: first compound 0.1 µM

Cell Line	relative viability
NCI-H2087	0.402
NCI-H1734	0.358
LCLC-103H	0.342
LU99A	0.841
NCI-H460	0.52
SK-LU-1	0.555
COR-L23	0.464
HCC-15	0.497
NCI-H1563	0.705
EMC-BAC-2	0.461
LC-2-ad	0.583
NCI-H2085	0.57
NCI-H647	0.404
HARA	0.283
NCI-H3122	0.372
CAL-12T	0.453
LCLC-97TM1	0.43
NCI-H520	0.702
NCI-H2228	0.298
NCI-H23	0.797
NCI-H2347	0.38
LXF-289	0.457
NCI-H1666	0.594
RERF-LC-KJ	0.408
NCI-H650	0.443
NCI-H596	0.748
201T	0.491
NCI-H441	0.856
HCC-78	0.618

Same assay, conditions: first compound 0.3162 µM

Cell Line	relative viability
EKVX	0.223
NCI-H1734	0.359
LCLC-103H	0.262
LU99A	0.551
NCI-H460	0.316
SK-LU-1	0.384
COR-L23	0.334
NCI-H1563	0.66
EMC-BAC-2	0.26
NCI-H2085	0.683
NCI-H727	0.718
NCI-H647	0.446
HARA	0.328
NCI-H3122	0.292
CAL-12T	0.602
LCLC-97TM1	0.43
NCI-H520	0.435
NCI-H2228	0.302
NCI-H23	0.728
HCC-827	0.425
NCI-H2347	0.463
LXF-289	0.435
NCI-H1666	0.63
RERF-LC-KJ	0.398
NCI-H596	0.725
201T	0.42
NCI-H441	0.739
HCC-78	0.817

Same assay, conditions: first compound 1 µM

Cell Line	relative viability
EKVX	0.213
NCI-H2087	0.467
NCI-H1734	0.356
LCLC-103H	0.307
LU99A	0.783
NCI-H460	0.52
SK-LU-1	0.521
COR-L23	0.435
HCC-15	0.45
NCI-H1563	0.672
EMC-BAC-2	0.452
LC-2-ad	0.569
NCI-H2085	0.676
NCI-H727	0.559
NCI-H647	0.376
HARA	0.323
NCI-H3122	0.394

Cell Line	relative viability
CAL-12T	0.552
COR-L 105	0.5
LCLC-97TM1	0.342
NCI-H520	0.496
NCI-H2228	0.267
NCI-H23	0.723
HCC-827	0.404
NCI-H2347	0.234
LXF-289	0.551
NCI-H1666	0.604
RERF-LC-KJ	0.498
NCI-H650	0.37
NCI-H322M	0.724
NCI-H596	0.56
201T	0.456
NCI-H441	0.744
HCC-78	0.727
